# Measured values as given in US12029738B2, “Antiproliferative compounds and methods of use thereof” (Celgene Corporation, priority 2017, dated 2024).
# Columns and labels:
# [1] = system: neutrophil progenitors (BM CD34+ cells from healthy donors); assay: In vitro maturation of neutrophil progenitors, dexamethasone alone and with Compound 2
# Protocol: Methods. To understand the effects of dexamethasone on neutropenia, in vitro cultures of BM CD34^+ cells from healthy donors were used to evaluate the neutropenic events mediated by dexamethasone as a single agent and in combination with Compound 2. To define the effects of dexamethasone monotherapy in this model, 1, 10, or 100 nM dexamethasone exposure was maintained for 30 h comparing 7 different dosing schedules (FIG. 11). For combination studies, single exposure Compound 2 (1, 10, or 100 nM) and dexamethasone were maintained for 6 and 30 h, respectively, starting at Day 13 of culture.
# [2] = system: lenalidomide-resistant NCI-H929 (H929-1051) multiple myeloma/plasmacytoma tumors; assay: H929-1051 xenograft, Compound 2 alone and with dexamethasone; assay type: in vivo, mouse; conditions: single agent dexamethasone 0.5 mg/kg oral once daily
structure (smiles),measurement,setting,value
"C[C@@H]1C[C@H]2[C@@H]3CCC4=CC(=O)C=C[C@]4(C)[C@@]3(F)[C@@H](O)C[C@]2(C)[C@@]1(O)C(=O)CO [Dexamethasone, dexamethasone]",viability of immature and mature neutrophils,[1]; alone or in combination,not affected
same,maturation of neutrophil progenitors / late-stage neutrophil precursors,"[1]; single agent, 1, 10, 100 nM, dexamethasone 30 h, Compound 2 6 h",not affected
same,tumor growth inhibition / tumor volume reduction (TVR),[2],20%
